What is called inhibition is the change of the read-out against control, counted positive when it falls. As a reminder, the EC50 is the concentration giving half of the maximal effect. The term GI50 denotes the concentration that inhibits growth by half. By IC50 is commonly meant the concentration at which inhibition is half-maximal.

The text below walks through data of patent US11331299B2, “Medicinal use of serrulatane diterpenes” (The University of Sydney, priority 2016, dated 2022).

One data set deals with T1, BRDT(1) (h) bromodomain (Homo sapiens, UniProt Q58F21).
T1 construct: Bromodomain; Eurofins CEREP (France), contract laboratory
As to the kind of experiment: Epigenetic binding assay, Bromodomain. The settings on record: read-out: % Inhibition of Control Specific Binding.

Another data set addresses UTX (h) (Homo sapiens, UniProt O15550). As to the kind of experiment: Epigenetic enzyme assay, Demethylases (KDMs). It counts as biochemical. The settings on record: for inhibition at 10 µM: read-out: % Inhibition of Control Values.
Another data set concerns the target T2, HDAC7 (h) (Homo sapiens, UniProt Q8WUI4).
T2 sequence (Q8WUI4 1-952): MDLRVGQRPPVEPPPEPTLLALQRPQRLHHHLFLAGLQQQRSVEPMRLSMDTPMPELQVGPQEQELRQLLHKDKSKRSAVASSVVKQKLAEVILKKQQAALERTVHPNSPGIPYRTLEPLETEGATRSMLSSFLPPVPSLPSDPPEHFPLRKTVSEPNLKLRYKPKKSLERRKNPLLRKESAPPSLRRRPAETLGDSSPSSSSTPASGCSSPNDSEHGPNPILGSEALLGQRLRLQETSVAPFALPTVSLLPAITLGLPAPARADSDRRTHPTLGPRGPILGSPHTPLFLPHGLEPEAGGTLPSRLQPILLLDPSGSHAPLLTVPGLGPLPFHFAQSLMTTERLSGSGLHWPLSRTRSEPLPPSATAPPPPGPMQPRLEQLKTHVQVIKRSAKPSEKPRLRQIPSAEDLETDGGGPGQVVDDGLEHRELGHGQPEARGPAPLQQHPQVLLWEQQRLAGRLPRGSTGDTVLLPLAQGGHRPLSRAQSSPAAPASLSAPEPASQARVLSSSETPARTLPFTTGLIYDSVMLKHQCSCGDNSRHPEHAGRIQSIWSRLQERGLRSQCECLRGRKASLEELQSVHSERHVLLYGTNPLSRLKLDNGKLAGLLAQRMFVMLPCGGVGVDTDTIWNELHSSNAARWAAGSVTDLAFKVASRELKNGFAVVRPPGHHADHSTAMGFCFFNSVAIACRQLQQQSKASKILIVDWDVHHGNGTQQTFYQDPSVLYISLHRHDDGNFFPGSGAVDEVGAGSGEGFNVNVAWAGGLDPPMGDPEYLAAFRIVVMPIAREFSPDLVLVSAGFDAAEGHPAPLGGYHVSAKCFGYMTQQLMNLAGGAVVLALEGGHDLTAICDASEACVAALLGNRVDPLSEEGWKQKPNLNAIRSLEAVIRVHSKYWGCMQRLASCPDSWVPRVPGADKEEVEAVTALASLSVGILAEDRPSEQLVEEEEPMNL
As to the kind of experiment: Epigenetic enzyme assay, Histone deacetylase (HDACs). The data set is classed as biochemical. To be noted: read-out: % Inhibition of Control Values.

Another data set addresses Sirtuin 6 (h) (Homo sapiens, UniProt Q8N6T7). Kind of data set: Epigenetic enzyme assay, Sirtuins. The data set is classed as biochemical. To be noted: 10 μM; read-out: % Inhibition of Control Values.
A further data set addresses DOT1L (h) (Homo sapiens, UniProt Q8TEK3). As to the kind of experiment: Epigenetic enzyme assay, Methyltransferases (MTs). The data set is classed as biochemical. To be noted: read-out: % Inhibition of Control Values.
In a further data set the target is MLL3(h) complex (Homo sapiens, UniProt Q8NEZ4). Kind of data set: Epigenetic enzyme assay, Methyltransferases (MTs). It counts as biochemical. The settings on record: for inhibition at 10 µM: read-out: % Inhibition of Control Values.
In data set [1] the target is DAPK3/ZIP (substrate histone H3 full length) (Homo sapiens, UniProt O43293). Kind of data set: Epigenetic enzyme assay, Kinases. The settings on record: read-out: % Inhibition of Control Values. The data set is classed as biochemical.
DAPK3/ZIP (substrate histone H3 full length), sequence (O43293 whole entry): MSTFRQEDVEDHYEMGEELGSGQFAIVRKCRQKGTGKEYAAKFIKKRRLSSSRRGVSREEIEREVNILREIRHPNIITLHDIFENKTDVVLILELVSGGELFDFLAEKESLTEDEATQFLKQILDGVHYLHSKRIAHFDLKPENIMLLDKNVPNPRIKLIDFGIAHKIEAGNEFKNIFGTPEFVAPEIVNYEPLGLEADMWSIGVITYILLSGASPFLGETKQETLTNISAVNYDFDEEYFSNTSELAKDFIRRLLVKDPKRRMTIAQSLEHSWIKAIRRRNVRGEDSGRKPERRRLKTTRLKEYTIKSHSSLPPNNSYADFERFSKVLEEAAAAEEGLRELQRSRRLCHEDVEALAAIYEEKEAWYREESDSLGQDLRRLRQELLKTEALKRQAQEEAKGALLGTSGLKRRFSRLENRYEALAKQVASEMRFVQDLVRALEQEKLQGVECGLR
Data set [2] addresses T3, Thiopurine S-methyltransferase (h) (Homo sapiens, UniProt P51580).
T3 sequence (P51580 1-245): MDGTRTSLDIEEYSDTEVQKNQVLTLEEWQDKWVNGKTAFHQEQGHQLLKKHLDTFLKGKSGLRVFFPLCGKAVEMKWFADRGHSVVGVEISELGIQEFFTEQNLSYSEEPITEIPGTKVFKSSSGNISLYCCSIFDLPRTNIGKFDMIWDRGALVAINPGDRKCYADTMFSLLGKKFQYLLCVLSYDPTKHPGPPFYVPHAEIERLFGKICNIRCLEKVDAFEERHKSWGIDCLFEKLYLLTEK
As to the kind of experiment: Epigenetic enzyme assay, Small molecule methyltransferases. The settings on record: read-out: % Inhibition of Control Values. The data set is classed as biochemical.

The target of the next data set is USP 14 (h) (Homo sapiens, UniProt P54578). Kind of data set: Epigenetic enzyme assay, Ubiquitin modifying enzymes. The data set is classed as biochemical. The settings on record: 10 μM; read-out: % Inhibition of Control Values.
USP 14 (h), sequence (P54578 whole entry): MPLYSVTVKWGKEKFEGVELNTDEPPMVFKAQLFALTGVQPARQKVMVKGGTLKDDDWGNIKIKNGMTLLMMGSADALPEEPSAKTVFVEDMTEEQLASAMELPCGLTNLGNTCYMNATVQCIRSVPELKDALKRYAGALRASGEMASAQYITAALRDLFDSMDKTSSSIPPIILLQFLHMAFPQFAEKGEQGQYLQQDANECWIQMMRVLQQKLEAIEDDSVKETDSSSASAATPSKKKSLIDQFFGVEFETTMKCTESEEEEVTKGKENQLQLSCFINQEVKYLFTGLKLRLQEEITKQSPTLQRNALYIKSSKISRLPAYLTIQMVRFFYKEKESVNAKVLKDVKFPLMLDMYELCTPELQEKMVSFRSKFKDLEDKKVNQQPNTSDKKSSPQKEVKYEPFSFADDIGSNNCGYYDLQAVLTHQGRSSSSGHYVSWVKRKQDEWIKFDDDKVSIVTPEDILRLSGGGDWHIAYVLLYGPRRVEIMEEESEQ
The target of the next data set is T4, Chemokine CCR1 (Homo sapiens, UniProt P32246).
T4 construct: expressed in transfected cells; host or cells: Chem-2 cells
T4 sequence (P32246 1-355): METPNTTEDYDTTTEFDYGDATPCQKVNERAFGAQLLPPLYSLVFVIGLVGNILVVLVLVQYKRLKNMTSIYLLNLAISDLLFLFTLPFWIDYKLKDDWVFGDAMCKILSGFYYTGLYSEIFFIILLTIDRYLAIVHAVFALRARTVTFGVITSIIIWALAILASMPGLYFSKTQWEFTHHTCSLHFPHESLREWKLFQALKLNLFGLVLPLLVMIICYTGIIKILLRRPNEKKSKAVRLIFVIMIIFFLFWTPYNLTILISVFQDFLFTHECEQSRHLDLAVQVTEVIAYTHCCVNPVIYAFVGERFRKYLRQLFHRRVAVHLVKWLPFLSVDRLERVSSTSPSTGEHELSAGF
As to the kind of experiment: Chemokine CCR1 radio ligand binding. To be noted: assay year 2015, read-out: % Control Response. As to the method: The in vitro pharmacological studies were conducted by Eurofins PanLab (Taiwan) using the parameters shown in Table 13 with respect to appropriate literature references.

Another data set has as its system SW480. Kind of data set: OncoPanel cell proliferation assay (10-day). The settings on record: for EC50 / GI50 / IC50: Homo sapiens, SW480, Colon; for EC50: read-out: Cell Count EC50; for GI50: read-out: Cell Count GI50; for IC50: read-out: Cell Count IC50. It counts as cell-based, human.
The target in a further data set is T5, CYP2C9 (Homo sapiens, UniProt P11712).
T5 construct: Human liver microsomes; from tissue; host or cells: human liver microsomes
T5 sequence (P11712 whole entry): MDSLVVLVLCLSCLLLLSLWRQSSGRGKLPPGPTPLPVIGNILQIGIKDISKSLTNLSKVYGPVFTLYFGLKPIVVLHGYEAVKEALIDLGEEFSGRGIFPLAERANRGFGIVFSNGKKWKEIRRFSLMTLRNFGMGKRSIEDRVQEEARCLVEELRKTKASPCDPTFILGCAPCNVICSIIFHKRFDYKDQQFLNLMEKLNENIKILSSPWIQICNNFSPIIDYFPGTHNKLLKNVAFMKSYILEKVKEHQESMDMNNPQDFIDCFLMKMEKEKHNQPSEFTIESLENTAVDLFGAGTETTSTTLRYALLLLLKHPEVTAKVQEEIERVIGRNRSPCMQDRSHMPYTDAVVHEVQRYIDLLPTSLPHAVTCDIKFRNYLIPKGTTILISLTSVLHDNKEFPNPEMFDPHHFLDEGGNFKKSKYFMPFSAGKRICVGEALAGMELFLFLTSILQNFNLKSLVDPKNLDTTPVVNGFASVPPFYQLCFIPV
Kind of data set: Cytochrome P450 Inhibition (CYP panel). The data set is classed as in vitro ADME. To be noted: human liver microsomes, probe diclofenac; for inhibition at 10 µM: read-out: % Inhibition of Control Values.

DOT1L (h), sequence (Q8TEK3 whole entry): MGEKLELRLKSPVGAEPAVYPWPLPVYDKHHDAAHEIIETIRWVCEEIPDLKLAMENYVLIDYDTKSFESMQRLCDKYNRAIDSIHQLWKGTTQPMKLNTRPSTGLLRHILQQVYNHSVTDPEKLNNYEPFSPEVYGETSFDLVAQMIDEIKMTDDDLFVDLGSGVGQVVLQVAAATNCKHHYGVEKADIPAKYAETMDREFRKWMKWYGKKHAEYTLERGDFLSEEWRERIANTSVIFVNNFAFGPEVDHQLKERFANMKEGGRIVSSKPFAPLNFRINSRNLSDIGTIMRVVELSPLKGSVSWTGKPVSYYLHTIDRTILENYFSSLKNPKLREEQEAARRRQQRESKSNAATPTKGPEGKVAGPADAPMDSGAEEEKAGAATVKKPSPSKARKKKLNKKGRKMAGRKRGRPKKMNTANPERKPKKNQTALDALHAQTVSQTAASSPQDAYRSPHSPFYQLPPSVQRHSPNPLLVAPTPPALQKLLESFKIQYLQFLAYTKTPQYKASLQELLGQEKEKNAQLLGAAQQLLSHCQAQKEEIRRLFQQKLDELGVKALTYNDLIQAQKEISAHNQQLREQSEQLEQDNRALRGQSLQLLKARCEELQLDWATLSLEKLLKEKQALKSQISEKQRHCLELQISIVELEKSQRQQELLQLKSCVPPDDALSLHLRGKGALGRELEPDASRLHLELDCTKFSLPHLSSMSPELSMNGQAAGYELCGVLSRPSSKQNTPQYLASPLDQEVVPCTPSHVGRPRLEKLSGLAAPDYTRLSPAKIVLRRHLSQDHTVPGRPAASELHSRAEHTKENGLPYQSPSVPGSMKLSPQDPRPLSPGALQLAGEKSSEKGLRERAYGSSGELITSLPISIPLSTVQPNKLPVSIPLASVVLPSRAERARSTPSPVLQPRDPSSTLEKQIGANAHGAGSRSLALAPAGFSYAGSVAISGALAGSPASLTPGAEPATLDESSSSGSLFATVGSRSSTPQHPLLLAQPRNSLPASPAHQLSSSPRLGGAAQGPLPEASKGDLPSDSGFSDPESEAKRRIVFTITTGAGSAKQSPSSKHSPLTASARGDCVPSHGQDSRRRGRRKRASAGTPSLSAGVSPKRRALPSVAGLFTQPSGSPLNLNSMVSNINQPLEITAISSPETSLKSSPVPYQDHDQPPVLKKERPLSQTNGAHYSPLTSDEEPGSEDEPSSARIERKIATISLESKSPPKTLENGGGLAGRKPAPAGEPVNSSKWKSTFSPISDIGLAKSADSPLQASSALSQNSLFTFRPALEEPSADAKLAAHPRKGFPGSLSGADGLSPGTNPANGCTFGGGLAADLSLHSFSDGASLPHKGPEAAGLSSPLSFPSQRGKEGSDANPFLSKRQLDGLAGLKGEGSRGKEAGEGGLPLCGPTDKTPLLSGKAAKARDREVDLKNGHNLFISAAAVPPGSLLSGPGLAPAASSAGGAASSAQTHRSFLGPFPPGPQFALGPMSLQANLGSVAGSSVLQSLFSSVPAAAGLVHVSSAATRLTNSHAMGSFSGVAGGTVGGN
Sirtuin 6 (h), sequence (Q8N6T7 whole entry): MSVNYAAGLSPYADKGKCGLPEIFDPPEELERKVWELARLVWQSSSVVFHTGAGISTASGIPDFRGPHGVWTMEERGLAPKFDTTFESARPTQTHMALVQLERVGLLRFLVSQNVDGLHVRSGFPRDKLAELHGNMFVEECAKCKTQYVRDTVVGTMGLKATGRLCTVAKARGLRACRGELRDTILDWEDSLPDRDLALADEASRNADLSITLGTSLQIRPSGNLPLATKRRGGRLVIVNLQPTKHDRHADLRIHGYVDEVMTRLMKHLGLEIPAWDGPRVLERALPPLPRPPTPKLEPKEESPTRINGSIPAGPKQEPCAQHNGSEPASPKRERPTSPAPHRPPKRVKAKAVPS
UTX (h), sequence (O15550 whole entry): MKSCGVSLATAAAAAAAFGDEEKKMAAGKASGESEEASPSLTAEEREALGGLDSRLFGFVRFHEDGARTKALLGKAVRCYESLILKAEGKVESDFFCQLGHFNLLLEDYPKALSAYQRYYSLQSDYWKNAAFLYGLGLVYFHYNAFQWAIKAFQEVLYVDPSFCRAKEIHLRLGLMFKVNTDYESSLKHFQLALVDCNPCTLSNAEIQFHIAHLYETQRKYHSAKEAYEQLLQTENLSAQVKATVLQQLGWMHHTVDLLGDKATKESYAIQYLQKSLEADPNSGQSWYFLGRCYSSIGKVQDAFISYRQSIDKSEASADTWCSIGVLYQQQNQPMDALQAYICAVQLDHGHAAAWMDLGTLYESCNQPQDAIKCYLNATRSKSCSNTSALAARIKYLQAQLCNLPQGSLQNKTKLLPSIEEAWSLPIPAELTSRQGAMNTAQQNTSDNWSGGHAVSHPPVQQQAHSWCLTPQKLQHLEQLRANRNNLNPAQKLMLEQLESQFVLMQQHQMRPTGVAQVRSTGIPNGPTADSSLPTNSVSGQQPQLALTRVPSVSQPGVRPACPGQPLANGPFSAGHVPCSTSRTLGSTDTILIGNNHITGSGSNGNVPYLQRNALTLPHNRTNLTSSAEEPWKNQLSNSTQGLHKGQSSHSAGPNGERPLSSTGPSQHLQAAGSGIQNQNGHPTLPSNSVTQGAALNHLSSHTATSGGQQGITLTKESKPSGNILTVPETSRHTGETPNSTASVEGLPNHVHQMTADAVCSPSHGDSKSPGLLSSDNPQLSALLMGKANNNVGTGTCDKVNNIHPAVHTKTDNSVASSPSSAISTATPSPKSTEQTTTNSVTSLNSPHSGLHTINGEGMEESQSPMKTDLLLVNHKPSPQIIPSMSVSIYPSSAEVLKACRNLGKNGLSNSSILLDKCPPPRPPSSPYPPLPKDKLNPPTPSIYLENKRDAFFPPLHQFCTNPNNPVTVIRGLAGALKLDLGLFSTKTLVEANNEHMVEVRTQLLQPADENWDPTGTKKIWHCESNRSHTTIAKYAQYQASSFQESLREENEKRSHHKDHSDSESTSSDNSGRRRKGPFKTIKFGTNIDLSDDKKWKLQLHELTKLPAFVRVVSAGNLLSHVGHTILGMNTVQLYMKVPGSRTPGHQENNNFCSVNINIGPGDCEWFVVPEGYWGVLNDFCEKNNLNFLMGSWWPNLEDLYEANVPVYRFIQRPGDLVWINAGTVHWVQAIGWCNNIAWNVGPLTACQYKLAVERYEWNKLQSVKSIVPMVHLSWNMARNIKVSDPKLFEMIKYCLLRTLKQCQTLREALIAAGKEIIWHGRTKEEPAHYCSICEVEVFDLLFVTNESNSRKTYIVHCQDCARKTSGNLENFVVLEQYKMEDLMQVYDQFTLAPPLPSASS

For `CC(C)=CCC[C@@H]1C(O)Oc2c(C)cc(O)c3c2[C@H]1CC[C@H]3C` (stereo partly shown) [Compound 2, 5,18-epoxyserrulat-14-en-8,18-diol], the inhibition at 10 µM is 23% at BRDT(1) (h) bromodomain; 5% on UTX (h) (10 μM); -6% on HDAC7 (h); 6% at Sirtuin 6 (h); 18% at DOT1L (h); -21% at MLL3(h) complex. The inhibition at 10 µM in data set [1] came out at 9%; in data set [2] it was 28%; at USP 14 (h), 0%; at CYP2C9, 72%. Besides, on Chemokine CCR1, the remaining activity at 10 µM was -3%. In the data set on SW480, the EC50 is 10.1 µM. In addition, the GI50 with SW480 was 9.93 µM. For the same compound, in the data set on SW480, the IC50 was 10.1 µM. The inhibition at 1 µM at CYP2C9 stood at 20%.
Regarding `CC(C)=CCC[C@@H]1COc2c(C)cc(O)c3c2[C@H]1CC[C@H]3C` [Compound 3, 5,18-epoxy-8-hydroxyserrulat-14-ene], the inhibition at 10 µM at BRDT(1) (h) bromodomain is 29%; at UTX (h) (10 μM) it was 27%; on HDAC7 (h), 16%; on Sirtuin 6 (h), -4%; at DOT1L (h) it was 13%; on MLL3(h) complex it was -33%. Also, the inhibition at 10 µM in [1] is 8%; in data set [2] it was 19%; at USP 14 (h), -24%. The remaining activity at 10 µM on Chemokine CCR1 is -5%.
Regarding `CC(C)=CCC[C@H](CO)[C@@H]1CC[C@@H](C)c2c1cc(C)c(O)c2O` [Compound 1, 7,8,18-trihydroxyserrulat-14-ene], the inhibition at 10 µM on BRDT(1) (h) bromodomain is 43%; on UTX (h) (10 μM) it was 68%; at HDAC7 (h), -111%; on Sirtuin 6 (h) it was 2%; at DOT1L (h), -5%; at MLL3(h) complex, -22%. Besides, the inhibition at 10 µM amounted to 4% in data set [1], 40% in data set [2], 1% at USP 14 (h) and 77% at CYP2C9. Further, the “% Inhibition of Control Values” at UTX (h) (10 μM) was “significant inhibitory activity”. Moreover, the IC50 came out at 6.7 µM against UTX (h) (Table 11, inhibition/concentration-response curve) and 1.21 µM in the data set with SW480. Besides, at Chemokine CCR1, the remaining activity at 10 µM was found to be 33%. Besides, in the data set on SW480, the EC50 is 1.21 µM. The GI50 with SW480 amounted to 1.2 µM. Further, the “Relative cell count (%) Mean” value with SW480 (SW480, 3.00E+00 microM) stood at 4.1%; in the data set on SW480 (SW480, 3.00E+01 microM), 0.4%; with SW480 (SW480, 3.01E−01 microM) it was 93.5%; with SW480 (SW480, 3.01E−02 microM) it was 99.5%; with SW480 (SW480, 3.02E−03 microM), 116.5%; in the data set on SW480 (SW480, 9.49E+00 microM) it was 0.2%. The “Relative cell count (%) Mean” value in the data set on SW480 (SW480, 9.51E−01 microM) is given as 69.9%; in the data set on SW480 (SW480, 9.52E−02 microM) it was 94.1%; with SW480 (SW480, 9.53E−03 microM) it was 103.7%; in the data set on SW480 (SW480, 9.55E−04 microM), 111.8%. Further, the inhibition at 1 µM against CYP2C9 turned out to be 5%.
As to `CC(C)=CCC[C@H](C)[C@@H]1CC[C@@H](C)c2c1cc(C)c(O)c2O` [Compound 4, 7,8-dihydroxyserrulat-14-ene], in the data set with SW480, the EC50 was 12.3 µM, the GI50 was 12.3 µM and the IC50 was found to be 12.3 µM. Also, at CYP2C9, the inhibition at 1 µM was 31% and the inhibition at 10 µM came to 91%.
Regarding `Nc1ncnc2c1ncn2[C@@H]1O[C@H](CSCC[C@H](N)C(=O)O)[C@@H](O)[C@H]1O` [SAH], the IC50 at MLL3(h) complex (read-out: Reference IC50) came to 9 µM.
